Data as given in article PMC9862597, “Anti-Colorectal Cancer Effects of a Novel Camptothecin Derivative PCC0208037 In Vitro and In Vivo” (Pharmaceuticals, 2022).

Assays:
[1] = system: LS180 cells; assay: MTT cell viability assay, LS180; type: cell-based; conditions: Homo sapiens, LS180, 72 h
Description: Cell viability was assessed using the MTT assay, as previously reported. Briefly, colorectal cancer cells (LS180, HCT116, CT-26, and HT-29 cells) were plated onto 96-well plates at 3000 cells per well and incubated overnight. […] Control cells were treated with DMSO at a final concentration of 0.1%. Cells were cultured with the compounds or medium for 72 h. The cells were then treated with MTT. The medium was then decanted, and DMSO was added and shaken until the color reaction was complete. The […] were read using a Molecular Devices SpectraMax M5 (San Jose, CA, USA) at OD570 nm. The half maximal inhibitory concentration (IC50) was calculated.

[2] = molecular target: T1, recombinant Topo I (Homo sapiens, UniProt P11387); assay: Topoisomerase I activity assay (DNA relaxation); type: biochemical; conditions: PCC0208037 100 and 10 nmol/L, SN-38 100 nmol/L, CPT-11 100 nmol/L; 30 min, 37 °C
T1 construct: purchased TopoGEN, Inc (Buena Vista, CO, USA) TG1018
T1 sequence (P11387 1-765): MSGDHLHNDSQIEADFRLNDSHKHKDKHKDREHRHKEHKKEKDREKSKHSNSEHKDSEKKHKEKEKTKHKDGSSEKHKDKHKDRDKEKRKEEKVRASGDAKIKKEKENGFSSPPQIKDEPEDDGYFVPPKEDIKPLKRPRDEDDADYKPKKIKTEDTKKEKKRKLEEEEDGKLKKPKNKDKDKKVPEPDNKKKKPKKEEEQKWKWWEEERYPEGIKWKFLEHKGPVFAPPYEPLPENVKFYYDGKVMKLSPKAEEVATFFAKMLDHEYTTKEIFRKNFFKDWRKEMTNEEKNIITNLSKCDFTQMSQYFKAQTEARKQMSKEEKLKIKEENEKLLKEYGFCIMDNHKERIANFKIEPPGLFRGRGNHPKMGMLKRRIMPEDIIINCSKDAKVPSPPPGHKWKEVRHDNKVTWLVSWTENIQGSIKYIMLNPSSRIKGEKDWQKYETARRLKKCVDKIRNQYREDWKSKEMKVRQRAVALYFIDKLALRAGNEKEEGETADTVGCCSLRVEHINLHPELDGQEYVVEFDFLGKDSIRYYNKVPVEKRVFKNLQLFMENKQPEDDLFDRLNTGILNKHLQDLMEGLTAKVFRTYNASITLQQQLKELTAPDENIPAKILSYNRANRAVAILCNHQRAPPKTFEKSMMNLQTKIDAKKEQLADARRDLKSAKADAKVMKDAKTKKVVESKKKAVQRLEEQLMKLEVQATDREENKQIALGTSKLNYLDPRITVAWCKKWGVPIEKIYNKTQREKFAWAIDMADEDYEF
Description: To determine whether PCC0208037 inhibited Topo I activity, a DNA relaxation assay was conducted. In this assay, supercoiled plasmid DNA was relaxed and nicked by recombinant Topo I, while no nicked DNA would be found when the Topo I enzyme was inhibited.
A Topoisomerase I Drug Screening Kit was used to detect the inhibitory activity of PCC0208037 against Topo I in the cell-free system. 1 IU Topo I and 250 ng of supercoiled plasmid DNA were pre-incubated with DMSO, PCC0208037 (100 nmol/L and 10 nmol/L), SN-38(100 nmol/L), or CPT (100 nmol/L) in a reaction buffer with a final volume of 20 μL and incubated for 30 min at 37 °C; then, the reaction was stopped by the addition of 2 ul of 10% SDS. Then, proteinase K was added to 50 ug/mL, incubated for 15 min at 37 °C, and 0.1 vol. of a loading buffer (0.25% bromophenol blue, 50% glycerol) was added. The supercoiled, relaxed, or nicked DNA was separated by 1% agarose gel in a 1 TAE (Tris-Acetate-EDTA) buffer. Ethidium bromide-stained agarose gel was photographed using Gel Doc XR.
Figure 4 Inhibition of Topo I activity by PCC0208037. […] Plasmid DNA was separated by an agarose gel and stained with ethidium bromide.

[3] = 0.25 h and 1 h after single i.v. injection
Description: Then, 0.25 h and 1 h after the injection, the colorectal and tumor tissue were removed, rinsed with saline, and blotted dry.

[4] = system: LS180 xenograft tumor; assay: Subcutaneous LS180 xenograft model; type: in vivo, nude mice; conditions: for tumor inhibition rate (tumor weight): 15 d
Description: To establish xenograft tumor models, RPMI 1640 and Matrigel were mixed at a 1:1 ratio. Colorectal cancer cells (LS180: 5 × 10^6 cells) were added to 0.1 mL of the mixture, and male nude mice were subcutaneously injected with colorectal cancer cells on the right side. […] Tumor volume and animal weight were measured every 3 days and continued until the end of the experiments. All mice were euthanized by cervical dislocation at the end of the experiment, and the xenograft tumors were removed and weighed.
Figure 8 Anti-tumor effect of PCC0208037 in the LS180 xenograft tumor model. (A) Representative tumors removed after the last treatment in each treatment group. (B) Body weight gain curves of mice bearing an LS180 xenograft tumor. (C) Tumor weights in the different groups of mice after 15 d of treatment.

[5] = system: LS180 and HCT116 cells; assay: Cell growth curve assay; type: cell-based; conditions: 0.001, 0.003 µmol/L, counts over 6 days
Description: Cell proliferation was examined by a cell growth curve assay and a clone formation assay. Colorectal cancer cells (LS180 and HCT116 cells) were plated onto six-well plates at a density of 8000 cells per well. […] The number of cells was measured 24 h after the drug treatments. Growth curves were generated from cell counts over 6 consecutive days. For the clone formation assay, colorectal cancer cells (LS180 and HCT116 cells) were plated onto six-well plates at a density of 800 cells per well. […] Cells were then incubated with designated concentrations of PCC0208037. Fourteen days later, cells were stained with a crystal violet solution, and clones were counted.
Figure 2 Effect of PCC0208037 on cell growth. (A) Cell growth curves of LS180 cells under different treatments. (B) Cell growth curves of HCT116 cells under different treatments. The data were expressed as the mean ± SD (n = 3). * p < 0.05 as compared to the control.

## CCc1c2c(nc3ccc(O)cc13)-c1cc3c(c(=O)n1C2)COC(=O)[C@@]3(CC)OC(=O)Nc1nc(=O)n([C@@H]2O[C@H](C)[C@@H](O)[C@H]2O)cc1F [PCC0208037]
[1]
  IC50: 220 ± 60 nM
[2]
  inhibition of Topo I activity (supercoiled plasmid DNA relaxation): dose-dependently increased the presence of supercoiled DNA
[3]
  concentration in the colorectal tissue compared with CPT-11: significantly lower than CPT-11
[4]; 5 mg/kg i.v. once every 3 days
  tumor inhibition rate (tumor weight): 29.9%
[4]; 10 mg/kg i.v. once every 3 days
  tumor inhibition rate (tumor weight): 37.2%
[4]; 20 mg/kg i.v. once every 3 days
  tumor inhibition rate (tumor weight): 50.8%
[4]; PCC0208037 5, 10, 20 mg/kg, CPT-11 10 mg/kg, i.v. once every 3 days
  effect on body weight of tumor-bearing mice: without impacting the normal feeding and body weight gain
[5]
  cell growth ability (cell growth curve): decreased the cell growth ability in a dose-dependent manner
